Source: patent US20120277238A1, “PHARMACEUTICAL COMPOSITION CONTAINING FUSED HETERO-RING DERIVATIVE” (Shionogi & Co., Ltd, priority 2009, published 2012)

How the values were obtained:
hERG (IKr) = biological target: T1, hERG (IKr) (Homo sapiens, UniProt Q12809); experiment: hERG test (whole cell patch clamp, IKr); assay type: cell-based; settings: HEK293 cells expressing hERG channel, pH 7.4, at 1 μmol/L, read-out: % inhibition of IKr (hERG tail peak current)
T1 construct: expressed in transfected cells; host or cells: HEK293
Excerpt: For the purpose of assessing risk of an electrocardiogram QT interval prolongation, effects on delayed rectifier K^+ current (IKr), which plays an important role in the ventricular repolarization process, was studied using HEK293 cells expressing human ether-a-go-go related gene (hERG) channel. After a cell was retained at a membrane potential of −80 mV by whole cell patch clamp method using an automated patch clamp system (PatchXpress 7000A, Axon Instruments Inc.), IKr induced by depolarization pulse stimulation at +50 mV for 2 seconds and, further, repolarization pulse stimulation at −50 mV for 2 seconds was recorded. […] From the recording IKr, an absolute value of the tail peak current was measured based on the current value at the resting membrane potential using an analysis software (DataXpress ver.1, Molecular Devices Corporation). Further, the % inhibition relative to the tail peak current before application of the test substance was calculated, and compared with the vehicle-applied group (0.1% dimethyl sulfoxide solution) to assess influence of the test substance on IKr.

human HRH4 = biological target: T2, human HRH4 (Homo sapiens, UniProt Q9H3N8); experiment: Histamine H4 receptor binding test ([3H]-Histamine radioligand binding); settings: membrane fraction of CHO-K1 expressing human HRH4; [3H]-Histamine 15 nM; Ki by Cheng-Prusoff
T2 construct: purchased PerkinElmer
Procedure: Membrane fraction of CHO-K1 stably expressing human HRH4 was purchased from PerkinElmer. Radioligand binding assay was performed in 96 well polypropylene assay plates in a total assay volume of 150 μL. Membrane suspension (15 μg of protein) was mixed with [3H]-Histamine (PerkinElmer) at 15 nM and compounds at various concentration in 50 mM Tris-HCl pH7.4, 5 mM EDTA buffer. Assays were incubated for 60 min at room temperature, then the reactions were terminated by rapid filtration over 96-well GF/B filter plates (PerkinElmer) presoaked in 0.5% polyethyleneimine. Unbound radioactivity was eliminated by six times of wash with 350 μL of ice-cold 50 mM Tris pH7.4 buffer. When the filter plates were dried, Microscint-MS liquid scintillation fluid (PerkinElmer) was added to each well and retained radioactivity plates were counted in a Topcount liquid scintillation counter (PerkinElmer). Specific binding was calculated by subtracting non-specific binding determined in the presence of 100 μM unlabeled histamine from total count.
The resulting data were analyzed for IC50 using the non-linear regression on XLfit.
Affinity values (Ki) were then determined by Cheng-Prusoff equation.

[1] = Bioavailability (BA) test and total body clearance test; assay type: in vivo; settings: plasma; rat; oral 1 mg/kg dosage
Procedure: (1) Animal: mice or rats (2) Breeding conditions: mice and rats are allowed to freely take solid feed and sterilized tap water (3) Dose and grouping: orally or intravenously administered at a predetermined dose; grouping is as follows (Dose depends on the compound)
Oral administration: 1 to 30 mg/kg (n=2 to 3)
Intravenous administration: 0.5 to 10 mg/kg (n=2 to 3)
(4) Preparation of dosing solution: for oral administration, in a solution or a suspension state; for intravenous administration, in a solubilized state (5) Administration method: in oral administration, forcedly administer into ventriculus with oral probe; in intravenous administration, administer from caudal vein with a needle-equipped syringe (6) Evaluation items: blood is collected over time, and the plasma concentration of drug is measured by LC/MS/MS (7) Statistical analysis: regarding the transition of the plasma concentration, the area under the plasma concentration-time curve (AUC) and total body clearance (Clt) are calculated by non-linear least squares program WinNonlin (Registered trademark), and the bioavailability (BA) is calculated from the AUCs of the oral administration group and intravenous administration group
The following values show the rat BA of the compounds on oral 1 mg/kg dosage.

[2] = Solubility test (artificial intestinal juice pH 6.8, 1% DMSO); assay type: physicochemical; settings: artificial intestinal juice pH 6.8 with 1% DMSO, fassgf or other biorelevant, kinetic from dmso stock, 25° C.
Procedure: The solubility of a compound is determined under a condition in which 1% DMSO is added. 10 mM compound solution is prepared using DMSO, and then 6 μL of the compound solution is added to 594 μL of artificial intestinal juice in pH 6.8 (to 250 mL of 0.2 mol/L potassium dihydrogen phosphate reagent solution is added 118 mL of 0.2 mol/L NaOH reagent solution and water to provide a final volume of 1000 mL). After standing at 25° C. for 16 hours, the mixed solution is filtrated with suction. The filtrate is diluted twice with methanol/water (1/1), and then a concentration in the filtration is measured with HPLC or LC/MS/MS by the absolute calibration method.

CYP3A4 [3] = biological target: T3, CYP3A4 (Homo sapiens, UniProt P08684); experiment: CYP inhibition test (pooled human hepatic microsome); assay type: in vitro ADME; design: enzyme, pooled human hepatic microsome 0.2 mg protein/mL; from tissue; settings: terfenedine hydroxylation
Procedure: Using commercially available pooled human hepatic microsome, and employing, as markers, 7-ethoxyresorufin O-deethylation (CYP1A2), tolbutamide methylhydroxylation (CYP2C9), mephenyloin 4′-hydroxylation (CYP2C19), dextromethorphan O-demethylation (CYP2D6), and terfenedine hydroxylation as typical substrate metabolism reactions of human main five CYP enzyme forms (CYP1A2, 2C9, 2C19, 2D6, 3A4), an inhibitory degree of each metabolite production amount by a test compound was assessed. […] After the centrifugation at 3000 rpm for 15 minutes, resorufin (CYP1A2 metabolite) in the supernatant was quantified by a fluorescent multilabel counter and tributamide hydroxide (CYP2CP metabolite), mephenyloin 4′ hydroxide (CYP2C19 metabolite), […], and terfenadine alcohol (CYP3A4 metabolite) were quantified by LC/MS/MS. Addition of only DMSO being a solvent dissolving a drug to a reaction system was adopted as a control (100%), remaining activity (%) was calculated at each concentration of a test drug added as the solution and IC50 was calculated by reverse presumption by a logistic model using a concentration and an inhibition rate.

CYP2D6 = biological target: T4, CYP2D6 (Homo sapiens, UniProt P10635); experiment: as above; assay type: in vitro ADME; settings: dextromethorphan O-demethylation
T4 construct: enzyme, pooled human hepatic microsome 0.2 mg protein/mL; from tissue
Procedure: (§1) Using commercially available pooled human hepatic microsome, and employing, as markers, 7-ethoxyresorufin O-deethylation (CYP1A2), tolbutamide methylhydroxylation (CYP2C9), mephenyloin 4′-hydroxylation (CYP2C19), dextromethorphan O-demethylation (CYP2D6), and terfenedine hydroxylation as typical substrate metabolism reactions of human main five CYP enzyme forms (CYP1A2, 2C9, 2C19, 2D6, 3A4), an inhibitory degree of each metabolite production amount by a test compound was assessed. The reaction conditions were as follows: substrate, 0.5 μmol/L ethoxyresorufin (CYP1A2), 100 μmol/L tolbutamide (CYP2C9), 50 μmol/L S-mephenitoin (CYP2C19), 5 μmol/L dextromethorphan (CYP2D6), 1 μmol/L terfenedine (CYP3A4); reaction time, 15 minutes; reaction temperature, 37° C.; enzyme, pooled human hepatic microsome 0.2 mg protein/mL; test drug concentration, 1, 5, 10, 20 μmol/L (four points). Each five kinds of substrates, human hepatic microsome, or a test drug in 50 mM Hepes buffer as a reaction solution was added to a 96-well plate at the composition as described above, NADPH, as a cofactor was added to initiate metabolism reactions as markers and, after the incubation at 37° C. for 15 minutes, a methanol/acetonitrile=1/1 (v/v) solution was added to stop the reaction. After the centrifugation at 3000 rpm for 15 minutes, resorufin (CYP1A2 metabolite) in the supernatant was quantified by a fluorescent multilabel counter and tributamide hydroxide (CYP2CP metabolite), mephenyloin 4′ hydroxide (CYP2C19 metabolite), […] (CYP2D6 metabolite), and terfenadine alcohol (CYP3A4 metabolite) were quantified by LC/MS/MS. Addition of only DMSO being a solvent dissolving a drug to a reaction system was adopted as a control (100%), remaining activity (%) was calculated at each concentration of a test drug added as the solution and IC50 was calculated by reverse presumption by a logistic model using a concentration and an inhibition rate.

CYP2C19 = biological target: T5, CYP2C19 (Homo sapiens, UniProt P33261); experiment: as above; assay type: in vitro ADME; settings: mephenyloin 4′-hydroxylation
T5 construct: enzyme, pooled human hepatic microsome 0.2 mg protein/mL; from tissue
Procedure: as §1

CYP1A2 = biological target: T6, CYP1A2 (Homo sapiens, UniProt P05177); experiment: as above; assay type: in vitro ADME; settings: 7-ethoxyresorufin O-deethylation
T6 construct: enzyme, pooled human hepatic microsome 0.2 mg protein/mL; from tissue
T6 sequence (P05177 1-516): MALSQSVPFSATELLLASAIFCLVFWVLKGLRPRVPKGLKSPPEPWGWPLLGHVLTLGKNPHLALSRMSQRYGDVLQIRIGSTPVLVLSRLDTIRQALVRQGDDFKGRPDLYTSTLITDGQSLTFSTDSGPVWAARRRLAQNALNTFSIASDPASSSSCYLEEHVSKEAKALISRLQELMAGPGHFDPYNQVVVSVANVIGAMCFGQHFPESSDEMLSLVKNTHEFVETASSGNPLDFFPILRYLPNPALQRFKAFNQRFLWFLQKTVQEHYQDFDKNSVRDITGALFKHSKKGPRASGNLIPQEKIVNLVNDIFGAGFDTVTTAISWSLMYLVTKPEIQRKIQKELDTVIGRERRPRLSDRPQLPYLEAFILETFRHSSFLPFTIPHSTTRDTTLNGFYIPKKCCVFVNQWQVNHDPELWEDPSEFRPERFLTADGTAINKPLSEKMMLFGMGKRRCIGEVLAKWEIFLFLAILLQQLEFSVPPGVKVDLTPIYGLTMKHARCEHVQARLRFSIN
Procedure: as §1

CYP2C9 = biological target: T7, CYP2C9 (Homo sapiens, UniProt P11712); experiment: as above; assay type: in vitro ADME; settings: tolbutamide methylhydroxylation
T7 construct: enzyme, pooled human hepatic microsome 0.2 mg protein/mL; from tissue
Procedure: as §1

CYP3A4 [4] = biological target: T3, CYP3A4; experiment: CYP3A4 fluorescent MBI test; assay type: in vitro ADME; design: host or cells: Escherichia coli; settings: prereaction 0 or 30 minutes; substrate 7-BFC; CYP3A4 expressed in Escherichia coli
Procedure: The CYP3A4 fluorescent MBI test is a test of investigating enhancement of CYP3A4 inhibition of a compound by a metabolism reaction, and the test was performed using, as CYP3A4 enzyme expressed in Escherichia coli and employing, as an index, a reaction in which 7-benzyloxytrifluoromethylchmarin (BFC) is debenzylated by the CYP3A4 enzyme to produce a metabolite, 7-hydroxytrifluoromethylchmarin (HFC) emitting fluorescent light.
The reaction conditions were as follows: substrate, 5.6 μmol/L 7-BFC; prereaction time, 0 or 30 minutes; reaction time, 15 minutes; reaction temperature, 25° C. […]
An enzyme in a K-Pi buffer (pH 7.4) and a test drug solution as a pre-reaction solution were added to a 96-well plate at the composition of the pre-reaction, a part of it was transferred to another 96-well plate so that it was 1/10 diluted by a substrate in a K-Pi buffer, NADPH as a co-factor was added to initiate a reaction as an index (without preincubation) and, after a predetermined time of a reaction, acetonitrile/0.5 mol/L Tris(trishydroxyaminomethane)=4/1 was added to stop the reaction. […] For the plate on which each index reaction had been performed, a fluorescent value of 7-HFC which is a metabolite was measured with a fluorescent plate reader. […]

T1 sequence (Q12809 whole entry): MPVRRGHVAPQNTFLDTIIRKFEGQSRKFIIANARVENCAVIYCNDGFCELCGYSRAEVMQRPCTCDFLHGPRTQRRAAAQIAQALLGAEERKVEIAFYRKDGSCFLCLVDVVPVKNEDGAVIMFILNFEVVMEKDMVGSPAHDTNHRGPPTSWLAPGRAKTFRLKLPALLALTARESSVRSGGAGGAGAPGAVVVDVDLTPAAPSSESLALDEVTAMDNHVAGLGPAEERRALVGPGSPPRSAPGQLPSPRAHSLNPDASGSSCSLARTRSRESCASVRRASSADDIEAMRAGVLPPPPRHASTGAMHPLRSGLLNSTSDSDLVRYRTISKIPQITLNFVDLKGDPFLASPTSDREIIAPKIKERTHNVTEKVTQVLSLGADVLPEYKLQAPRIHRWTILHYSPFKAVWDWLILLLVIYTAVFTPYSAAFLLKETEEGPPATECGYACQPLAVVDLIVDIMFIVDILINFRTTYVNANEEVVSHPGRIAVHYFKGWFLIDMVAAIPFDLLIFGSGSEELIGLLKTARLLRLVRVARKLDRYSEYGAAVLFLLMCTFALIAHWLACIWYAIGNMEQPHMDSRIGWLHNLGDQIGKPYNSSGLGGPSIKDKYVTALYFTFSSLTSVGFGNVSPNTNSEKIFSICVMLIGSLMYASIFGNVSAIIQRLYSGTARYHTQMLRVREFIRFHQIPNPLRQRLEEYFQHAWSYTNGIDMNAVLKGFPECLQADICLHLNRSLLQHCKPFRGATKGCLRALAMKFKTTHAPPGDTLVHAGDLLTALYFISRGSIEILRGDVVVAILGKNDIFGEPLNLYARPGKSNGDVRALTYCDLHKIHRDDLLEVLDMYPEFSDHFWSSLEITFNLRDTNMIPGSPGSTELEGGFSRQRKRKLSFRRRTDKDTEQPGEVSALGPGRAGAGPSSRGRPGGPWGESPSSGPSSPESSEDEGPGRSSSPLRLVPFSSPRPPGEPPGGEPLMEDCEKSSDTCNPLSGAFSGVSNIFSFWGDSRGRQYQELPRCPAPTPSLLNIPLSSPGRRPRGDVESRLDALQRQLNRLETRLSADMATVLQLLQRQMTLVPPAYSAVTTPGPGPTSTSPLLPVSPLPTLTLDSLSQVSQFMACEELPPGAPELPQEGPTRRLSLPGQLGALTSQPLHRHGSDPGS
T3 sequence (P08684 whole entry): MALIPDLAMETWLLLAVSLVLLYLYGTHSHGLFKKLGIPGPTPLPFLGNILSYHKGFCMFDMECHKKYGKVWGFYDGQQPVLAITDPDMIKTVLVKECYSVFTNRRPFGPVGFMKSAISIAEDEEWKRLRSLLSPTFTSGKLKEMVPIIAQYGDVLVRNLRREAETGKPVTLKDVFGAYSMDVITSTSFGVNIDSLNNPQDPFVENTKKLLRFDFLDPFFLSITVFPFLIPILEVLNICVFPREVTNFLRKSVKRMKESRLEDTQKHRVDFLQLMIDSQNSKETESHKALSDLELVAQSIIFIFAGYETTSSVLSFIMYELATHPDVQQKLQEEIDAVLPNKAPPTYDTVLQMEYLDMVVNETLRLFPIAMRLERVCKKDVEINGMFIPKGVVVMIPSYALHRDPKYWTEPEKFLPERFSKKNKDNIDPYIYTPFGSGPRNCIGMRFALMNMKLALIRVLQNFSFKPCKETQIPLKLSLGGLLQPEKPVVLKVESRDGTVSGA
T5 sequence (P33261 whole entry): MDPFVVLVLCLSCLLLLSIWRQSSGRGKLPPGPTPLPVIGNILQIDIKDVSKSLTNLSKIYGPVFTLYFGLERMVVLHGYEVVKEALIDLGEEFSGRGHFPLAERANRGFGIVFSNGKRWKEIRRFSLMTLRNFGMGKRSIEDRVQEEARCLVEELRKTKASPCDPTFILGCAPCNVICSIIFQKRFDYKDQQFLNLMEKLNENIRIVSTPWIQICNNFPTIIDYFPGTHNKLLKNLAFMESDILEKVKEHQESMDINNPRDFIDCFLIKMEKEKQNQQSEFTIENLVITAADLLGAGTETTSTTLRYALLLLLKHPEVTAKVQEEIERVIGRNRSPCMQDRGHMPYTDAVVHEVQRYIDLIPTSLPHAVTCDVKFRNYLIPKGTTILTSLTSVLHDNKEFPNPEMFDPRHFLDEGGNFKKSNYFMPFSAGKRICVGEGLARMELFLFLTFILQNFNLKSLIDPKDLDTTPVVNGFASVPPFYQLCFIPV
T4 sequence (P10635 whole entry): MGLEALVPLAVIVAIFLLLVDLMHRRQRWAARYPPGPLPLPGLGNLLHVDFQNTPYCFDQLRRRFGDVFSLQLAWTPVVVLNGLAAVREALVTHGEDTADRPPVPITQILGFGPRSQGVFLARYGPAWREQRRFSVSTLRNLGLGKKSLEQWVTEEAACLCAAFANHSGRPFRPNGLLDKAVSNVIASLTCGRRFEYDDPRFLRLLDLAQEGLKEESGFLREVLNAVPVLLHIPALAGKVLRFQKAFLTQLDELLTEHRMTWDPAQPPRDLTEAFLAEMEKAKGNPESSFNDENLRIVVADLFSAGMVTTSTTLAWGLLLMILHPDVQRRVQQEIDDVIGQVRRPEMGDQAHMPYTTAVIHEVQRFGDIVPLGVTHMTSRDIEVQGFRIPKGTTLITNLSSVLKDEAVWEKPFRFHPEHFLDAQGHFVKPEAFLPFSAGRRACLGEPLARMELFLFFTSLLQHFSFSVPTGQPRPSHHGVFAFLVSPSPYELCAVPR
T7 sequence (P11712 whole entry): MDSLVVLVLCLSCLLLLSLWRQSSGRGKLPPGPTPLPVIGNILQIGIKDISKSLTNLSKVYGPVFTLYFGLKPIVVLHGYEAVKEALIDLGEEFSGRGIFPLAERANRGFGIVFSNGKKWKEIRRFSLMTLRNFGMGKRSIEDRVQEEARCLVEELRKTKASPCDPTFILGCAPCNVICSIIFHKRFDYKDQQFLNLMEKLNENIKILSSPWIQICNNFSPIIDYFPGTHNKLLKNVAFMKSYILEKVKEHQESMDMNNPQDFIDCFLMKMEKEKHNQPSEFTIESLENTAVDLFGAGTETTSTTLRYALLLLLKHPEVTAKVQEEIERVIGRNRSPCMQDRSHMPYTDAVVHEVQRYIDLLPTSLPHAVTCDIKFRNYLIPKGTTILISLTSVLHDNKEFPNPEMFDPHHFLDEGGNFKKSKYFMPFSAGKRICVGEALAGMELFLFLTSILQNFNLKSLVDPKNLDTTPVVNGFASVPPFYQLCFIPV

Ki (human HRH4) | bioavailability [1] | solubility at 16 h [2] | IC50 (CYP3A4 [3]) | IC50 (CYP2D6) | IC50 (CYP2C19) | IC50 (CYP1A2) | IC50 (CYP2C9) | Compound | inhibition at 10 min, 1 μmol/L (hERG (IKr)) | CYP3A4 MBI: difference between IC50 values (CYP3A4 [4])
150 nM | 31% |  |  |  |  |  |  | CN1CCN(C(=O)c2cc3c([nH]2)CCC(C#N)C3)CC1 (stereo not shown) [Compound I-035] | 0% | 
270 nM |  |  |  |  |  |  |  | CN1CCN(C(=O)c2cc3c([nH]2)C(CO)CCC3)CC1 (stereo not shown) [Compound I-043] | 0% | 
63 nM |  | > 50 µM | > 20000 nM | > 20000 nM | > 20000 nM | > 20000 nM | > 20000 nM | CN1CCN(C(=O)c2cc3c([nH]2)CCC(F)(F)C3)CC1 [Compound I-050] |  | (−) (when the difference is 3 μM or less, this was defined as (−))
